Assay: plasma hydrolysis of prodrug esters of (−) CPTA
Type: in vitro ADME
Details: human plasma (heparinized, pooled), 37° C., 125 or 250 μM prodrug; read-out: Plasma T1/2
Experimental: This example illustrates the plasma hydrolysis of various prodrug esters of the (S)-enantiomer of CPTA at physiological conditions. Hydrolysis was monitored and analyzed by HPLC. The hydrolytic product was identified by comparison to authentic (−) CPTA and the hydrolytic rates were calculated.
Human plasma (heparinized, pooled) was obtained from Golden West Biololgicals Inc., USA; Plasma incubation was carried out in a Water Bath Shaker (New Brunswick Scientific, Inc.); Sample analyses were carried out on Agilent HPLC 1100 system.
Prepare 31.25 or 62.5 mM prodrug stock solutions in 100% DMSO. Add 4 μL of 31.25 or 62.5 mM prodrug stock solutions to 1.0 mL of plasma in a microcentrifuge tube to make plasma concentration at 125 or 250 μM, mix gently. Aliquots of 50 μL are transferred to 15 microcentrifuge vials. Three samples are immediately removed to a freezer at about −80° C. (0 time point), the remaining samples are incubated in a bath shaker at 37° C. Three samples are removed at 30 min, 2, 7 and 24 hr, and stored at −80° C. until analysis. The relative concentrations of MBX-compounds are determined by HPLC methods. If there are enough data points, the hydrolytic rate can be calculated using WinNonlin software. Table 10 provides a summary of plasma half-lives of some pro-drug esters and FIGS. 20A-20G illustrate the hydrolytic curves of those prodrug esters. […]

half-life: < 1 h
SMILES: C=C/C=C(\C=C)C(=O)NCCOC(=O)C(Oc1cccc(C(F)(F)F)c1)c1ccc(Cl)cc1 (stereo not shown) [Compound 19.4]

Reference: US20080194646A1, “Methods For Avoiding Edema in the Treatment of Metabolic, Inflammatory, and Cardiovascular Disorders” (priority 2005, published 2008)
